Reference: patent publication US4461899A, “Fluorenecarboxylic acid derivatives” (Diamond Shamrock Chemicals Company, priority 1982, dated 1984)
“Also recorded” adds a separate entry of the source. Where a name gives a salt, the structure may show the parent alone.

What was measured:
[1] = tested on: field grown tomato plants; test: Overall yield and fruit size of field grown tomatoes; format: in vivo; settings: for Fruit Size, Green (% of Control): control 104.0 g; for Fruit Size, Red (% of Control): control 105.5 g
Source text: This example illustrates the effects of compounds of this invention on overall yield of tomatoes. For the test, field grown tomato plants, when in the early flowering stage, were foliage sprayed with the particular compounds of the invention designated below, and with the commercial product CF-125 (Maintain), at rates of 10, 50 and 500 ppm. These rates correspond to applications of 3.69 g, 18.54 g and 185.4 g/hectare, respectively. Each treatment consisted of five plants; the experimental design was a complete randomized block with three replications. A block of untreated plants was included as the control. The fruit was harvested by hand and separated into […] ripe fruit and marketable green fruit.

[2] = tested on: soybean plants; test: Soybean yield after foliar spray at early flowering stage; format: in vivo; settings: for Yield Improvement %: vs control
Source text: Two 50 cm rows of soybean plants at the early flowering stage were sprayed with 100 ppm or 500 ppm of the cis-2,5-dimethylpyrrolidine salt of 9-fluorenecarboxylic acid, using a spray volume of about 375 liters/hectare (40 gallons/acre). For comparison, other rows were sprayed with like concentrations of two known compounds as designated below. Also 2 untreated rows were maintained to serve as a control: each of the plots was weeded by hand as needed. At maturity, each plot was harvested and the yield was determined.

[3] = tested on: Kentucky and Merion turfgrass mixture; test: Turfgrass growth retardation (height and fresh weight of clippings) after spraying; format: in vivo; settings: for % Reduction in Weight / Reduction in Height: vs control
Method: Two known plant growth regulants were similarly tested. Some grass samples were not treated, only fertilized, as controls. Before treatment, the grass was cut and then fertilized with a 20-20-20 water-soluble fertilizer. Three pots were sprayed per treatment. […] The pots were placed in a plant growth room and were watered daily. The grass was cut at 21, 49 and 84 days after being treated; the blade height and total fresh weight of the clippings were measured.

[4] = tested on: field grown tomato plants; test: Fruit set and phytotoxicity in field grown tomato plants; format: in vivo; settings: for Increase Over Control (%) of fruit set: 24 days; for Fruit Set Per Plant (After 24 days) / Phytotoxicity: 24 days after treatment; for Increase (%) of fruit set: initial to 24 days
Source text: To determine fruit set effects by compounds of this invention, field grown tomato plants were foliage sprayed with the cis-2,5-dimethylpyrrolidine salt of […], 9-cis-2,5-dimethyl-1-pyrrolidinyl-2-chlorofluorene-9-carboxylic acid, methyl ester, and the commercial plant growth regulant, MAINTAIN CF-125 (methyl-2-chloro-9hydroxyfluorene-9-carboxylate, manufactured by U.S. Borax and Chemical Corp.). Rates of application employed were 5, 25, and 100 ppm when the tomato plants were in the late blooming to early fruit setting stage. Untreated plants were included in the test as controls. Five plants were sprayed for each chemical treatment. The number of fruit set and the degree of phytotoxicity to the plants were determined 24 days after treatment.

[5] = tested on: plants being treated; settings: background; in many instances; cited from earlier work
[6] = tested on: "Walter" variety tomato plants; test: Yield of "Walter" variety tomatoes, weekly harvest of mature red fruit; format: in vivo; settings: for Total Fruit / Total Fruit, % of Control: weeks 1-6
Source text: Compounds of this invention were further tested as tomato yield enhancers as follows:
"Walter" variety tomato plants, in the early flowering stage, were foliage sprayed at a rate of 68.8 liters/hectare with compounds of this invention, and with the commercial product, CF-125. Each plot consisted of 20 plants; the experimental design was a completed randomized block with three replications. A plot of untreated plants was included as a control. Marketable, mature red tomatoes were harvested weekly, beginning 5 weeks after treatment.

[7] = 1.12 kilogram/hectare, after 21 days
[8] = 1.12 kilogram/hectare, after 49 days
[9] = 1.12 kilogram/hectare, after 84 days
[10] = 2.24 kilogram/hectare, after 21 days
[11] = 2.24 kilogram/hectare, after 49 days
[12] = 2.24 kilogram/hectare, after 84 days
[13] = 4.48 kilogram/hectare, after 21 days
[14] = 4.48 kilogram/hectare, after 49 days
[15] = 4.48 kilogram/hectare, after 84 days
[16] = third dosage column, printed 1.12 kilogram/hectare, after 21 days

SMILES: O=C(O)c1cccc2c1Cc1ccccc1-2 [Example 1, cis-2,5-dimethyl-1-pyrrolidine salt of 1-fluorenecarboxylic acid]
- tomato yield / fruit size, in words ([1]; 10, 50 and 500 ppm, Example 1 decrease at 500 ppm): enhanced, at the rates applied, either the total yield of tomatoes and/or the percentage of red fruit vs. green fruit; also recorded: caused a decrease in all yields when applied at a rate of 500 ppm
- Fruit Yield, Green (% of Control) ([1]; 10 ppm): 92 % of Control
- Fruit Yield, Red (% of Control) ([1]; 10 ppm): 152 % of Control
- Total Yield (% of Control) ([1]; 10 ppm): 113 % of Control
- Fruit Size, Green (% of Control) ([1]; 10 ppm): 76 % of Control
- Fruit Size, Red (% of Control) ([1]; 10 ppm): 87 % of Control
- Fruit Yield, Green (% of Control) ([1]; 50 ppm): 45 % of Control
- Fruit Yield, Red (% of Control) ([1]; 50 ppm): 149 % of Control
- Total Yield (% of Control) ([1]; 50 ppm): 80 % of Control
- Fruit Size, Green (% of Control) ([1]; 50 ppm): 93 % of Control
- Fruit Size, Red (% of Control) ([1]; 50 ppm): 73 % of Control
- Fruit Yield, Green (% of Control) ([1]; 500 ppm): 54 % of Control
- Fruit Yield, Red (% of Control) ([1]; 500 ppm): 68 % of Control
- Total Yield (% of Control) ([1]; 500 ppm): 59 % of Control
- Fruit Size, Green (% of Control) ([1]; 500 ppm): 87 % of Control
- Fruit Size, Red (% of Control) ([1]; 500 ppm): 79 % of Control
- Yield (Kilograms) × 10^2 ([2]; 100 ppm): 19.38 Kilograms × 10^2
- Yield Improvement % ([2]; 100 ppm): 9.8%
- Yield (Kilograms) × 10^2 ([2]; 500 ppm): 21.98 Kilograms × 10^2
- Yield Improvement % ([2]; 500 ppm): 24.1%
- % Reduction in Weight [3, 7]: 76%
- Reduction in Height [3, 7]: 50%
- % Reduction in Weight [3, 8]: 45%
- Reduction in Height [3, 8]: 45%
- % Reduction in Weight [3, 9]: 0%
- Reduction in Height [3, 9]: 0%
- % Reduction in Weight [3, 10]: 73%
- Reduction in Height [3, 10]: 48%
- % Reduction in Weight [3, 11]: 64%
- Reduction in Height [3, 11]: 46%
- % Reduction in Weight [3, 12]: 0%
- Reduction in Height [3, 12]: 0%
- Reduction in Height [3, 13]: 56%
- % Reduction in Weight [3, 14]: 63%
- Reduction in Height [3, 14]: 46%
- % Reduction in Weight [3, 15]: 19%
- Reduction in Height [3, 15]: 31%
- appearance of treated turf (leaf, texture) ([3]; in words): fine leaf and smooth texture; it did not have the twisted, yellowish leaves
- activity in controlling grass growth ([3]; in words, compared with MAINTAIN CF-125 and MOW-LESS): more active in controlling grass growth than either MAINTAIN CF-125 or MOW-LESS
- % Reduction in Weight [3, 16]: 75%
- Increase Over Control (%) of fruit set ([4]; 5 ppm): 35%
- Fruit Set Per Plant (After 24 days) ([4]; 5 ppm): 16.2
- Phytotoxicity ([4]; 5 ppm): 0
- Fruit Set Per Plant (Initial) ([4]; 5 ppm): 7.6
- Increase (%) of fruit set ([4]; 5 ppm): 108%
- Increase Over Control (%) of fruit set ([4]; 25 ppm): 18%
- Fruit Set Per Plant (After 24 days) ([4]; 25 ppm): 21.0
- Phytotoxicity ([4]; 25 ppm): 0
- Fruit Set Per Plant (Initial) ([4]; 25 ppm): 11.0
- Increase (%) of fruit set ([4]; 25 ppm): 91%
- Increase Over Control (%) of fruit set ([4]; 100 ppm): 47%
- Fruit Set Per Plant (After 24 days) ([4]; 100 ppm): 23.8
- Phytotoxicity ([4]; 100 ppm): light
- Fruit Set Per Plant (Initial) ([4]; 100 ppm): 10.8
- Increase (%) of fruit set ([4]; 100 ppm): 120%

SMILES: COC(=O)C1(O)c2ccccc2-c2ccc(Cl)cc21 (centres unmarked) [MAINTAIN CF-125, methyl-2-chloro-9-hydroxyfluorene-9-carboxylate]
- Fruit Yield, Green (% of Control) ([1]; 10 ppm): 25 % of Control
- Fruit Yield, Red (% of Control) ([1]; 10 ppm): 24 % of Control
- Total Yield (% of Control) ([1]; 10 ppm): 25 % of Control
- Fruit Size, Green (% of Control) ([1]; 10 ppm): 104 % of Control
- Fruit Size, Red (% of Control) ([1]; 10 ppm): 97 % of Control
- Fruit Yield, Green (% of Control) ([1]; 50 ppm): 12 % of Control
- Fruit Yield, Red (% of Control) ([1]; 50 ppm): 122 % of Control
- Total Yield (% of Control) ([1]; 50 ppm): 44 % of Control
- Fruit Size, Green (% of Control) ([1]; 50 ppm): 62 % of Control
- Fruit Size, Red (% of Control) ([1]; 50 ppm): 88 % of Control
- Fruit Yield, Green (% of Control) ([1]; 500 ppm): 3 % of Control
- Fruit Yield, Red (% of Control) ([1]; 500 ppm): 79 % of Control
- Total Yield (% of Control) ([1]; 500 ppm): 29 % of Control
- Fruit Size, Green (% of Control) ([1]; 500 ppm): 54 % of Control
- Fruit Size, Red (% of Control) ([1]; 500 ppm): 108 % of Control
- phytotoxicity, in words [5]: phytotoxic to the plants being treated
- % Reduction in Weight [3, 7]: 31%
- Reduction in Height [3, 7]: 36%
- % Reduction in Weight [3, 8]: 0%
- Reduction in Height [3, 8]: 3%
- % Reduction in Weight [3, 9]: 0%
- Reduction in Height [3, 9]: 0%
- % Reduction in Weight [3, 10]: 38%
- Reduction in Height [3, 10]: 42%
- % Reduction in Weight [3, 11]: 0%
- Reduction in Height [3, 11]: 0%
- % Reduction in Weight [3, 12]: 0%
- Reduction in Height [3, 12]: 0%
- Reduction in Height [3, 13]: 50%
- % Reduction in Weight [3, 14]: 4%
- Reduction in Height [3, 14]: 14%
- % Reduction in Weight [3, 15]: 0%
- Reduction in Height [3, 15]: 0%
- % Reduction in Weight [3, 16]: 52%
- Increase Over Control (%) of fruit set ([4]; 5 ppm): -35%
- Fruit Set Per Plant (After 24 days) ([4]; 5 ppm): 11.8
- Fruit Set Per Plant (Initial) ([4]; 5 ppm): 7.8
- Increase (%) of fruit set ([4]; 5 ppm): 38%
- Increase Over Control (%) of fruit set ([4]; 25 ppm): -23%
- Fruit Set Per Plant (After 24 days) ([4]; 25 ppm): 12.6
- Fruit Set Per Plant (Initial) ([4]; 25 ppm): 8.4
- Increase (%) of fruit set ([4]; 25 ppm): 50%
- Increase Over Control (%) of fruit set ([4]; 100 ppm): -55%
- Fruit Set Per Plant (After 24 days) ([4]; 100 ppm): 8.0
- Fruit Set Per Plant (Initial) ([4]; 100 ppm): 6.8
- Increase (%) of fruit set ([4]; 100 ppm): 18%
- Fruit Yield (kg/plot) ([6]; 5 ppm): 25.6 kg/plot
- Total Yield Wt. % of Control ([6]; 5 ppm): 108.0 % of Control
- Fruit harvested, Harvest Time (Week) 1 ([6]; 5 ppm): 34
- Fruit harvested, Harvest Time (Week) 2 ([6]; 5 ppm): 206
- Fruit harvested, Harvest Time (Week) 3 ([6]; 5 ppm): 139
- Fruit harvested, Harvest Time (Week) 4 ([6]; 5 ppm): 40
- Fruit harvested, Harvest Time (Week) 5 ([6]; 5 ppm): 29
- Fruit harvested, Harvest Time (Week) 6 ([6]; 5 ppm): 178
- Total Fruit ([6]; 5 ppm): 626
- Total Fruit, % of Control ([6]; 5 ppm): 109 % of Control
- Fruit Yield (kg/plot) ([6]; 10 ppm): 15.3 kg/plot
- Total Yield Wt. % of Control ([6]; 10 ppm): 64.8 % of Control
- Fruit harvested, Harvest Time (Week) 1 ([6]; 10 ppm): 6
- Fruit harvested, Harvest Time (Week) 2 ([6]; 10 ppm): 192
- Fruit harvested, Harvest Time (Week) 3 ([6]; 10 ppm): 92
- Fruit harvested, Harvest Time (Week) 4 ([6]; 10 ppm): 16
- Fruit harvested, Harvest Time (Week) 5 ([6]; 10 ppm): 4
- Fruit harvested, Harvest Time (Week) 6 ([6]; 10 ppm): 69
- Total Fruit ([6]; 10 ppm): 379
- Total Fruit, % of Control ([6]; 10 ppm): 66 % of Control
- Fruit Yield (kg/plot) ([6]; 50 ppm): 2.6 kg/plot
- Total Yield Wt. % of Control ([6]; 50 ppm): 11.0 % of Control
- Fruit harvested, Harvest Time (Week) 1 ([6]; 50 ppm): 15
- Fruit harvested, Harvest Time (Week) 2 ([6]; 50 ppm): 18
- Fruit harvested, Harvest Time (Week) 3 ([6]; 50 ppm): 8
- Fruit harvested, Harvest Time (Week) 4 ([6]; 50 ppm): 0
- Fruit harvested, Harvest Time (Week) 5 ([6]; 50 ppm): 0
- Fruit harvested, Harvest Time (Week) 6 ([6]; 50 ppm): 2
- Total Fruit ([6]; 50 ppm): 43
- Total Fruit, % of Control ([6]; 50 ppm): 7 % of Control
